According to patent US10131652B2, “Pyrimidinyloxy benzene derivatives as herbicides” (E. I. DU PONT DE NEMOURS AND COMPANY, priority 2014, dated 2018):

Columns and labels:
Assay type in all cases: in vivo
[1] = tested on: galium (catchweed bedstraw, Galium aparine); experiment: Test B postemergence plant response; conditions: 0 to 100 scale, 0 no effect, 100 complete control
Procedure, shortened: (§1)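 Visual injury rating, 0–100 (0 = no effect, 100 = complete control), vs untreated controls ~10 days after postemergence spray; greenhouse; potted loam soil/sand; plants 2–10 cm, 1–2 leaf stage.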

[2] = tested on: blackgrass (Alopecurus myosuroides); experiment: Test B postemergence plant response; conditions: 0 to 100 scale, 0 no effect, 100 complete control
Procedure, shortened: as §1

[3] = tested on: kochia (Kochia scoparia); experiment: Test D postemergence plant response; conditions: for Kochia plant response rating: scale 0 to 100 (0 no effect, 100 complete control); for Plant response rating, Kochia: scale 0 to 100, 0 no effect, 100 complete control
Procedure, shortened: (§2)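 The formulated test chemicals were applied over the foliage of young potted plants (2 to 18 cm tall), which were then held under greenhouse conditions. Between days 13 and 15 each species was rated by eye versus controls, from 0 for no effect up to 100 for complete control.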

[4] = tested on: wild oat (Avena fatua); experiment: Test D postemergence plant response; conditions: for Oat, Wild plant response rating: scale 0 to 100 (0 no effect, 100 complete control); for Plant response rating, Oat, Wild: scale 0 to 100, 0 no effect, 100 complete control
Procedure, shortened: as §2

[5] = tested on: chickweed (common chickweed, Stellaria media); experiment: Test D postemergence plant response; conditions: for Chickweed plant response rating: scale 0 to 100 (0 no effect, 100 complete control); for Plant response rating, Chickweed: scale 0 to 100, 0 no effect, 100 complete control
Procedure, shortened: as §2

[6] = tested on: giant foxtail (Setaria faberii); experiment: Test B pre-/postemergence plant response
Procedure, shortened: (§3)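 Steps: plant seeds in loam soil–sand mix; spray soil preemergence, and in parallel spray 2–10 cm one- to two-leaf plants postemergence; hold ~10 days in greenhouse; visually rate injury against untreated controls (0 = no effect, 100 = complete control).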

[7] = tested on: pigweed (Amaranthus retroflexus); experiment: Test B pre-/postemergence plant response
Procedure, shortened: as §3

[8] = tested on: kochia (Kochia scoparia); experiment: Test B pre-/postemergence plant response
Procedure, shortened: as §3

[9] = tested on: Italian ryegrass (Lolium multiflorum); experiment: Test B pre-/postemergence plant response
Procedure, shortened: as §3

[10] = tested on: corn (Zea mays); experiment: Test B pre-/postemergence plant response; conditions: 0 to 100 scale, 0 no effect, 100 complete control
Procedure, shortened: as §3

[11] = tested on: barnyardgrass (Echinochloa crus-galli); experiment: Test B pre-/postemergence plant response
Procedure, shortened: as §3

[12] = tested on: wheat (Triticum aestivum); experiment: Test B pre-/postemergence plant response; conditions: 0 to 100 scale, 0 no effect, 100 complete control
Procedure, shortened: as §3

[13] = tested on: ragweed (common ragweed, Ambrosia elatior); experiment: Test B pre-/postemergence plant response
Procedure, shortened: as §3

[14] = tested on: ducksalad (Heteranthera limosa); experiment: Test C flooded paddy test plant response; conditions: Flood, 250 g ai/ha; scale of 0 to 100 where 0 is no effect and 100 is complete control; 13 to 15 days
Procedure, shortened: (§4)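 Readout is a visual 0–100 score (100 = complete control) versus controls at 13–15 days. Plants at 2-leaf stage, flooded to 3 cm, treated through paddy water.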

[15] = tested on: barnyardgrass (Echinochloa crus-galli); experiment: Test C flooded paddy test plant response; conditions: Flood, 250 g ai/ha; scale of 0 to 100 where 0 is no effect and 100 is complete control; 13 to 15 days
Procedure, shortened: as §4

[16] = tested on: small-flower umbrella sedge (Cyperus difformis); experiment: Test C flooded paddy test plant response; conditions: Flood, 250 g ai/ha; scale of 0 to 100 where 0 is no effect and 100 is complete control; 13 to 15 days
Procedure, shortened: as §4

[17] = tested on: rice (Oryza sativa); experiment: Test C flooded paddy test plant response; conditions: Flood, 250 g ai/ha; scale of 0 to 100 where 0 is no effect and 100 is complete control; 13 to 15 days
Procedure, shortened: as §4

[18] = 31 g ai/ha, Postemergence, 0 to 100 scale, 0 no effect, 100 complete control
[19] = 31 g ai/ha, Preemergence, 0 to 100 scale where 0 is no effect and 100 is complete control
[20] = 125 g ai/ha, postemergence, 0 to 100 scale, 0 no effect, 100 complete control
[21] = Preemergence, 125 g ai/ha, 0 to 100 scale where 0 is no effect and 100 is complete control

Fc1cccc(Oc2ncc(Br)cn2)c1-c1cc(C(F)F)on1 [Compound 118]
Plant response rating, Galium ([1]; 31 g ai/ha, Postemergence): 100
Plant response rating, Galium ([1]; 125 g ai/ha, postemergence): 100
Plant response rating, Blackgrass ([2]; 31 g ai/ha, Postemergence): 60
Plant response rating, Blackgrass ([2]; 125 g ai/ha, postemergence): 100
Kochia plant response rating ([3]; 16 g ai/ha): 95
Kochia plant response rating ([3]; 31 g ai/ha): 95
Plant response rating, Kochia ([3]; 62 g ai/ha): 95
Plant response rating, Kochia ([3]; 125 g ai/ha): 100
Oat, Wild plant response rating ([4]; 16 g ai/ha): 5
Oat, Wild plant response rating ([4]; 31 g ai/ha): 10
Plant response rating, Oat, Wild ([4]; 62 g ai/ha): 15
Plant response rating, Oat, Wild ([4]; 125 g ai/ha): 50
Chickweed plant response rating ([5]; 16 g ai/ha): 75
Chickweed plant response rating ([5]; 31 g ai/ha): 70
Plant response rating, Chickweed ([5]; 62 g ai/ha): 90
Plant response rating, Chickweed ([5]; 125 g ai/ha): 98
Plant response rating, Foxtail, Giant [6, 18]: 90
Plant response rating, Foxtail, Giant [6, 19]: 100
Plant response rating, Foxtail, Giant [6, 20]: 100
Plant response rating, Foxtail, Giant [6, 21]: 100
Plant response rating, Pigweed [7, 18]: 100
Plant response rating, Pigweed [7, 19]: 100
Plant response rating, Pigweed [7, 20]: 100
Plant response rating, Kochia [8, 18]: 100
Plant response rating, Kochia [8, 19]: 80
Plant response rating, Kochia [8, 20]: 100
Plant response rating, Kochia [8, 21]: 100
Plant response rating, Ryegrass, Italian [9, 18]: 20
Plant response rating, Ryegrass, Italian [9, 19]: 20
Plant response rating, Ryegrass, Italian [9, 20]: 80
Plant response rating, Corn ([10]; 31 g ai/ha, Postemergence): 50
Plant response rating, Corn ([10]; 125 g ai/ha, postemergence): 100
Plant response rating, Barnyardgrass [11, 18]: 70
Plant response rating, Barnyardgrass [11, 19]: 70
Plant response rating, Barnyardgrass [11, 20]: 100
Plant response rating, Barnyardgrass [11, 21]: 100
Plant response rating, Wheat ([12]; 31 g ai/ha, Postemergence): 20
Plant response rating, Wheat ([12]; 125 g ai/ha, postemergence): 60
Plant response rating, Ragweed [13, 18]: 30
Plant response rating, Ragweed [13, 19]: 20
Plant response rating, Ragweed [13, 20]: 50
Ducksalad plant response rating [14]: 100
Barnyardgrass plant response rating [15]: 50
Sedge, Umbrella plant response rating [16]: 100
Rice plant response rating [17]: 45

FC(F)c1cc(-c2c(Cl)cccc2Oc2ncc(Cl)cn2)on1 [Compound 120]
Plant response rating, Galium ([1]; 31 g ai/ha, Postemergence): 100
Plant response rating, Galium ([1]; 125 g ai/ha, postemergence): 100
Plant response rating, Blackgrass ([2]; 31 g ai/ha, Postemergence): 70
Plant response rating, Blackgrass ([2]; 125 g ai/ha, postemergence): 90
Kochia plant response rating ([3]; 16 g ai/ha): 98
Kochia plant response rating ([3]; 31 g ai/ha): 100
Plant response rating, Kochia ([3]; 62 g ai/ha): 100
Plant response rating, Kochia ([3]; 125 g ai/ha): 100
Oat, Wild plant response rating ([4]; 16 g ai/ha): 35
Oat, Wild plant response rating ([4]; 31 g ai/ha): 40
Plant response rating, Oat, Wild ([4]; 62 g ai/ha): 55
Plant response rating, Oat, Wild ([4]; 125 g ai/ha): 60
Chickweed plant response rating ([5]; 16 g ai/ha): 95
Chickweed plant response rating ([5]; 31 g ai/ha): 100
Plant response rating, Chickweed ([5]; 62 g ai/ha): 100
Plant response rating, Chickweed ([5]; 125 g ai/ha): 100
Plant response rating, Foxtail, Giant [6, 18]: 40
Plant response rating, Foxtail, Giant [6, 19]: 100
Plant response rating, Foxtail, Giant [6, 20]: 90
Plant response rating, Foxtail, Giant [6, 21]: 100
Plant response rating, Pigweed [7, 18]: 100
Plant response rating, Pigweed [7, 19]: 100
Plant response rating, Pigweed [7, 20]: 100
Plant response rating, Kochia [8, 18]: 90
Plant response rating, Kochia [8, 19]: 80
Plant response rating, Kochia [8, 20]: 90
Plant response rating, Kochia [8, 21]: 90
Plant response rating, Ryegrass, Italian [9, 18]: 30
Plant response rating, Ryegrass, Italian [9, 19]: 40
Plant response rating, Ryegrass, Italian [9, 20]: 90
Plant response rating, Corn ([10]; 31 g ai/ha, Postemergence): 30
Plant response rating, Corn ([10]; 125 g ai/ha, postemergence): 40
Plant response rating, Barnyardgrass [11, 18]: 50
Plant response rating, Barnyardgrass [11, 19]: 90
Plant response rating, Barnyardgrass [11, 20]: 90
Plant response rating, Barnyardgrass [11, 21]: 100
Plant response rating, Wheat ([12]; 31 g ai/ha, Postemergence): 0
Plant response rating, Wheat ([12]; 125 g ai/ha, postemergence): 40
Plant response rating, Ragweed [13, 18]: 40
Plant response rating, Ragweed [13, 19]: 10
Plant response rating, Ragweed [13, 20]: 70
Ducksalad plant response rating [14]: 100
Barnyardgrass plant response rating [15]: 90
Sedge, Umbrella plant response rating [16]: 95
Rice plant response rating [17]: 90
